# Results from US20190167771A1, “CONTROL ANGIOGENESIS BY REGULATING PHOSPHORYLATION OF SERYL-tRNA SYNTHETASE (SerRS)” (The Scripps Research Institute, priority 2016, published 2019).
# Legend:
# SIRT2 = test: Co-immunoprecipitation of SerRS with SIRT2 in HEK293 cells; assay type: cell-based, human; details: V5-tagged SIRT2 and Flag-tagged SerRS co-transfected
# Procedure: The cytosolic fractions (Cy), nuclear fractions (Nu), and the whole cell lysates (WCL) were examined by immunoblot with antibodies against SerRS, nuclear protein Lamin A/C, and cytosolic protein α-tubulin. In FIG. 8B, HEK293 cells were transfected with Flag-tagged SerRS^WT, SerRS^S101A/S241A, or SerRS^S101D/S241D and subjected to cell fractionation and IB with anti-Flag, anti-Lamin A/C, and anti-α-tubulin antibodies. In FIG. 8C, HEK293 cells were cultured under hypoxia for 6 hours and 12 hours. Cells were then lysed and subjected to IP with anti-SerRS antibody and IB with both anti-SerRS and anti-SIRT2 antibodies. In FIG. 8D, HEK293 cells were co-transfected with V5-tagged SIRT2 and Flag-tagged wild type or mutant SerRS. 24 hours post-transfection, cell lysates were subjected to IP with anti-Flag antibody and IB with anti-V5 antibody.
# Cells were resuspended with lysis buffer (20 mM Tris-HCl (pH 7.5), 150 mM NaCl, 1 mM of EDTA, 1 mM EGTA, 1% Triton X-100, 2.5 mM sodium pyrophosphate, 1 mM beta-glycerophosphate, 1 mM Na3VO4, and protease inhibitor cocktail) on ice. Supernatants were incubated with indicated antibodies and protein-G-conjugated agarose beads (ThermoFisher Scientific) for at least 2 h. […]
# ATM/ATR kinases [1] = test: Phosphorylation of exogenously expressed Flag-tagged SerRS in hypoxic HEK293 cells (IP/IB with anti-P-SQ); assay type: cell-based, human; details: hypoxia 12 hours
# ATM/ATR kinases [2] = test: In vitro phosphorylation of recombinant SerRS by DNA-activated HEK293 nuclear extract (p-SQ immunoblot, 32P-labelling); assay type: biochemical, human; details: recombinant his6-tagged protein, p-SQ antibody and 32P-labelling
# Procedure: FIGS. 1A-G show SerRS is important for hypoxia induced VEGFA expression and is phosphorylated by ATM and ATR kinases under hypoxia at serine 101 and serine 241 residues. In FIG. 1A, HEK293 cells were transfected with shRNAs targeting SerRS (sh-SerRS) or GlyRS (sh-GlyRS), or nonspecific control shRNA (sh-Control). 48 hours post-transfection, cells were cultured under hypoxia or normoxia conditions for 12 hours. Immunoblot of cell lysates with anti-SerRS, anti-GlyRS and anti-β-actin antibodies (left). VEGFA expression levels were measured by qRT-PCR (right) and relative induction of VEGFA transcription under hypoxia were plotted (right, inset) (means±SEM. from four independent experiments; *P<0.01, **P<0.0001). […] The conserved ATM/ATR substrate motif residues are underlined. In FIG. 1C, recombinant his6-tagged human SerRS or GlyRS were incubated with γ-^32P-ATP and HEK293 cell nuclear extracts which are treated with or without double-stranded DNA oligoes mimicking DNA damage stimuli to activate ATM/ATR/DNA-PK kinases. Recombinant proteins were then purified by Ni-NTA beads and subjected to SDS-PAGE and autoradiography. In FIG. 1D, recombinant his6-tagged two human aminoacyl tRNA synthetases (AARS): TyrRS and GlyRS, wild type SerRS, or SerRS mutants with single or double substitutions of serine 101 and serine 241 with alanine (S101A, S241A, and S101A/S241A) were treated as described in FIG. 1C and phosphorylated recombinant proteins were immunoblotted with antibodies as indicated after purification by Ni-NTA beads. In FIG. 1E, HEK293 cells were cultured under hypoxia for 3, 6, and 12 hours. Phosphorylated SerRS was immunoblotted with specific anti-p-SQ antibody after SerRS proteins were immunoprecipitated (IP). Cell lysates were immunoblotted with indicated antibodies for known ATM and ATR substrates (Chk1 and P53). In FIG. 1F, Flag-tagged wild type and mutant SerRS constructs were transfected into HEK293 cells. 24 hours post-transfection, cells were treated with hypoxia stress for 12 hours and ectopically expressed SerRS was then purified by immunoprecipitation (IP) using anti-Flag antibody and immunoblot (IB) with anti-P-SQ antibody and anti-Flag antibody. In FIG. 1G, HEK293 cells were transfected with siRNA against ATM (si-ATM) or ATR (si-ATR) and treated with hypoxia stress for 12 hours. Phosphorylated SerRS were immunoblotted as described in FIG. 1E. […]
# For protein purification, human SerRS and its mutant genes were subeloned into pET-20b(+) plasmid (Novagen, Darmstadt, Germany) and overexpressed in E. coli. […] The purities of the recombinant proteins were assessed by Coomassie blue staining following 4-12% Mini Gel (ThermoFisher Scientific) electrophoresis. Protein concentrations were determined using Bradford protein assay (BioRad, Hercules, Calif., USA). […]
Substance,interaction with SIRT2 (SIRT2),phosphorylation of exogenously expressed SerRS (ATM/ATR kinases [1]),level of phosphorylation in vitro (ATM/ATR kinases [2])
"SerRS^S101A/S241A: phosphorylation-deficient human SerRS double mutant, serine 101 and 241 to alanine, SEQ ID NO: 4 (mouse version in matrigel assay)",as strong as with SerRS^WT,much weaker phosphorylation than wild type SerRS,almost had no phosphorylation
"SerRS^S101D/S241D: SerRS with double substitutions of S101 and S241 with aspartic acid, mimics the phosphorylated SerRS",as strong as with SerRS^WT,–,–
"SerRS^WT: wildtype human seryl-tRNA synthetase protein, SEQ ID NO: 1 (mouse wild type used in the 3B11 matrigel assay)",–,–,robust phosphorylation
